Series [1] concerns pentylenetetrazole-induced clonic seizures. Briefly: animal or person. The conditions noted are these: doses 30, 100, 300 mg/kg; for minimal effective dose: Mus musculus, sc, read-out: scPTZ, dose at which at least one of three animals was protected. In kind it is in vivo, Kunming mice. The method, then:
(§1) Pharmacological tests were performed using two experimental animal models, MES and scPTZ, which were divided into three dosage groups of 30, 100, and 300 mg/kg, and the anticonvulsant activity of the target compounds 6a–m and 9a–g, after 0.5 and 4 h of administration, respectively, were tested. Carbamazepine, which is effective in the MES model, was chosen as a positive control, and ethosuximide, which is effective in the scPTZ model, was chosen as a positive control. […]
The test compound wa s
Absence of clonic spasms indicated a […]

A further series has as its system MES-induced seizures. Briefly: animal or person. In kind it is in vivo, Kunming mice. The settings on record: Mus musculus, ip, doses 30, 100, 300 mg/kg, read-out: MES, dose at which at least one of three animals was protected. The method, then:
as §1
Protection against the spread of
extension component of the seizure. […]

A further series has as its system mice. Briefly: Rotarod (ROT) neurotoxicity test. The settings on record: doses 100, 300 mg/kg. (The rotarod test checks motor coordination on a turning rod.)

Molecules are shown by their SMILES. Read-outs that look alike come from different tables or passages of the source.

Protocol for mice: The neurotoxicity of the target compounds was tested using the ROT experimental model, which was divided into two dose groups, 100 and 300 mg/kg, and tested after 0.5 and 4 h of administration, respectively.
The neurotoxicity of the target compounds was determined using the ROT experimental model.
The neurotoxicity of the compounds wa s measured in mice using the rotarod test. Mice
we r e trained to stay on an accelerating rotarod (diameter, 3.2 cm) rotating at 10 rpm. Trained
animals we r e injected with the test compounds (i.p.) and neurotoxicity wa s measured as the
inability of the animal to maintain equilibrium on the rod for at least 1 min in each of the

`O=C(Nc1ccc(-n2cncn2)cc1)c1ccccc1F` [Compound 6e, N-(4-(1H-1,2,4-triazol-1-yl)phenyl)-2-fluorobenzamide]: the minimal effective dose (in series [1] (0.5 h after administration); in series [1] (4 h after administration); with MES-induced seizures (0.5 h after administration); with MES-induced seizures (4 h after administration)) was 100 mg/kg in each case. Further, the “NT (neurotoxicity, ROT), dose at which at least one of three animals showed neurotoxicity” value (from here on “NT (neurotoxicity, ROT), dose at which”) with mice (0.5 h after administration) and in the series with mice (4 h after administration) was greater than 300 mg/kg each time.
Regarding `CCC(=O)Nc1ccc(-n2cncn2)cc1` [Compound 9a, N-(4-(1H-1,2,4-triazol-1-yl)phenyl)propionamide], the minimal effective dose was 100 mg/kg in series [1] (0.5 h after administration), 100 mg/kg in series [1] (4 h after administration), 100 mg/kg in the series with MES-induced seizures (0.5 h after administration) and 300 mg/kg in the series on MES-induced seizures (4 h after administration). The “NT (neurotoxicity, ROT), dose at which” value in the series on mice (0.5 h after administration) and in the series on mice (4 h after administration) was greater than 300 mg/kg throughout.
Consider `O=C(Nc1ccc(-n2cncn2)cc1)c1ccccc1Cl` [Compound 6b, N-(4-(1H-1,2,4-triazol-1-yl)phenyl)-2-chlorobenzamide], for which the minimal effective dose was 100 mg/kg in series [1] (0.5 h after administration), 300 mg/kg in series [1] (4 h after administration), 300 mg/kg with MES-induced seizures (0.5 h after administration) and 100 mg/kg in the series on MES-induced seizures (4 h after administration). Further, the “NT (neurotoxicity, ROT), dose at which” value in the series on mice (0.5 h after administration) and with mice (4 h after administration) was greater than 300 mg/kg throughout.
Consider `O=C(Nc1ccc(-n2cncn2)cc1)c1ccc(Cl)cc1` [Compound 6d, N-(4-(1H-1,2,4-triazol-1-yl)phenyl)-4-chlorobenzamide], for which the “scPTZ, dose at which at least one of three animals was protected” value in series [1] (4 h after administration) is “inactive”. Besides, the minimal effective dose was 300 mg/kg in series [1] (0.5 h after administration), greater than 300 mg/kg in series [1] (4 h after administration), 300 mg/kg in the series on MES-induced seizures (0.5 h after administration) and 300 mg/kg in the series with MES-induced seizures (4 h after administration). In addition, the “NT (neurotoxicity, ROT), dose at which” value in the series on mice (0.5 h after administration) and in the series with mice (4 h after administration) was greater than 300 mg/kg each time.
As for `O=C(Nc1ccc(-n2cncn2)cc1)c1ccccc1C(F)(F)F` [Compound 6h, N-(4-(1H-1,2,4-triazol-1-yl)phenyl)-2-(trifluoromethyl)benzamide], in series [1] (4 h after administration), the “scPTZ, dose at which at least one of three animals was protected” value was “inactive”. The minimal effective dose is 300 mg/kg in series [1] (0.5 h after administration), greater than 300 mg/kg in series [1] (4 h after administration), 100 mg/kg in the series on MES-induced seizures (0.5 h after administration) and 300 mg/kg in the series on MES-induced seizures (4 h after administration). Also, the “NT (neurotoxicity, ROT), dose at which” value with mice (0.5 h after administration) and in the series on mice (4 h after administration) was greater than 300 mg/kg each time.
On to `CCCC(=O)Nc1ccc(-n2cncn2)cc1` [Compound 9b, N-(4-(1H-1,2,4-triazol-1-yl)phenyl)butyramide], for which the minimal effective dose in series [1] (0.5 h after administration) came to 30 mg/kg; in series [1] (4 h after administration), 100 mg/kg; in the series with MES-induced seizures (0.5 h after administration), 30 mg/kg; with MES-induced seizures (4 h after administration) it was 100 mg/kg. Moreover, the “NT (neurotoxicity, ROT), dose at which” value in the series on mice (0.5 h after administration) is listed as 300 mg/kg; with mice (4 h after administration), greater than 300 mg/kg.
On to `O=C(Nc1ccc(-n2cncn2)cc1)c1ccccc1` [Compound 6a, N-(4-(1H-1,2,4-triazol-1-yl)phenyl)benzamide], for which the minimal effective dose in series [1] (0.5 h after administration) stood at 100 mg/kg; in series [1] (4 h after administration), 100 mg/kg; in the series on MES-induced seizures (0.5 h after administration), 300 mg/kg; in the series with MES-induced seizures (4 h after administration) it was 300 mg/kg. Moreover, the “NT (neurotoxicity, ROT), dose at which” value in the series with mice (0.5 h after administration) and in the series on mice (4 h after administration) was greater than 300 mg/kg each time.
For the molecule `CCCCCCCCC(=O)Nc1ccc(-n2cncn2)cc1` [Compound 9g, N-(4-(1H-1,2,4-triazol-1-yl)phenyl)nonanamide], the minimal effective dose in series [1] (0.5 h after administration) is 300 mg/kg; in series [1] (4 h after administration) it was greater than 300 mg/kg; in the series on MES-induced seizures (0.5 h after administration), 300 mg/kg; in the series with MES-induced seizures (4 h after administration) it was 300 mg/kg. Also, the “NT (neurotoxicity, ROT), dose at which” value in the series with mice (0.5 h after administration) and with mice (4 h after administration) was greater than 300 mg/kg each time.
